These results are taken from PMC10734298 (ACS Omega, 2023).

The nature of one data set: Toxicity in MDCK cells. The settings on record: dog.
In data set [1] the test system is A/Almaty/8/98(H3N2). The data set can be described thus: microbe, parasite or virus in culture. It counts as cell-based, influenza A virus. The following applies: for EC50: Influenza A virus, H3N2, MDCK.
In data set [2] the test system is A/Vladivostok/2/09 (H1N1). As to the kind of experiment: animal or person. It counts as in vivo. The settings on record: Influenza A virus.
Data set [3] relates to A/Vladivostok/2/09 (H1N1). More on the design: species or system influenza A virus.
The test system of data set [4] is A/chicken/FPV/Rostock/1934(H7N1). More on the design: species or system influenza A virus. The settings on record: in vivo.
Data set [5] deals with A/Almaty/8/98(H3N2). More on the design: species or system influenza A virus.
The subject of data set [6] is A/Vladivostok/2/09 (H1N1). It counts as biochemical, influenza A virus. The following applies: read-out: Hemagglutination Inhibition Concentration 50 (HIC50).
Data set [7] concerns A/Vladivostok/2/09 (H1N1). The data set can be described thus: microbe, parasite or virus in culture. It counts as cell-based, influenza A virus. The following applies: for EC50: Influenza A virus, H1N1, MDCK.
The subject of data set [8] is A/chicken/FPV/Rostock/1934(H7N1). It counts as cell-based, influenza A virus.
For data set [9], the system named is A/Tern/South Africa/1/61(H5N3). The data set can be described thus: microbe, parasite or virus in culture. It counts as cell-based, influenza A virus. The settings on record: for EC50: Influenza A virus, H5N3, MDCK.
The subject of data set [10] is A/chicken/FPV/Rostock/1934 (H7N1). More on the design: species or system influenza A virus.
The test system of data set [11] is A/Tern/South Africa/1/61 (H5N3). It counts as biochemical, influenza A virus. The following applies: read-out: Hemagglutination Inhibition Concentration 50 (HIC50).
The target in data set [12] is NA of A/Tern/South Africa/1/61 (H5N3) (Influenza A virus, UniProt Q6XV52). As to the kind of experiment: biochemical.
Data set [13] in a line: Toxicity in fertilized chicken eggs. The following applies: in vivo, other: inoculated into the allantoic cavity.
Data set [14] deals with A/chicken/FPV/Rostock/1934 (H7N1). It counts as biochemical, influenza A virus. The following applies: read-out: Hemagglutination Inhibition Concentration 50 (HIC50).
Data set [15] has as its system influenza virus (all tested viruses). The data set can be described thus: microbe, parasite or virus in culture. It counts as cell-based, influenza A virus. The settings on record: unidentified influenza virus, MDCK, read-out: EC50 value.
The subject of data set [16] is A/Tern/South Africa/1/61 (H5N3). More on the design: species or system influenza A virus.
The target of data set [17] is NA of A/chicken/FPV/Rostock/1934 (H7N1) (Influenza A virus, UniProt Q64968). It counts as biochemical. The settings on record: read-out: Neuraminidase Inhibition Concentration 50 (NIC50).
Data set [18] has as its system A/Tern/South Africa/1/61(H5N3). As to the kind of experiment: animal or person. The following applies: for EC50: Influenza A virus, H5N3. It counts as in vivo, influenza A virus.
The subject of data set [19] is A/Almaty/8/98(H3N2). It counts as biochemical, influenza A virus. The settings on record: read-out: Hemagglutination Inhibition Concentration 50 (HIC50).
In data set [20] the test system is A/Almaty/8/98(H3N2). The data set can be described thus: animal or person. It counts as in vivo, influenza A virus. The settings on record: for EC50: Influenza A virus, H3N2.
Data set [21] concerns NA protein of panel of viruses. As to the kind of experiment: NA inhibition assay, whole virus panel. It counts as biochemical, influenza A virus. The settings on record: read-out: concentrations inhibiting the NA activity; range over panel viruses.

Like-named read-outs stand apart in the source and are kept apart here. Where only a bound is given, the exact number is not on record here.

NA of A/chicken/FPV/Rostock/1934 (H7N1), sequence (Q64968 whole entry, looked up): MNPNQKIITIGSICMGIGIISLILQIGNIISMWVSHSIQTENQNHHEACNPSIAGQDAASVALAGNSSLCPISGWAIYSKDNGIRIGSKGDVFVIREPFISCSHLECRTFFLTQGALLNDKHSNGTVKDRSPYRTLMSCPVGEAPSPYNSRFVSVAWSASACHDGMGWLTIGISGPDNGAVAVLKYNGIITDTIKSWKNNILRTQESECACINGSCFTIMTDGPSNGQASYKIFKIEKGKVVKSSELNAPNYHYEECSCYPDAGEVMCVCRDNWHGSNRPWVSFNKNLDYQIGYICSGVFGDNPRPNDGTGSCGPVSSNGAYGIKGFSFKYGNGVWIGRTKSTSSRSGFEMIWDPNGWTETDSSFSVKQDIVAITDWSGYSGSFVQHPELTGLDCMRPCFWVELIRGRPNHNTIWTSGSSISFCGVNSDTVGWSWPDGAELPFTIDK
NA of A/Tern/South Africa/1/61 (H5N3), sequence (Q6XV52 whole entry, looked up): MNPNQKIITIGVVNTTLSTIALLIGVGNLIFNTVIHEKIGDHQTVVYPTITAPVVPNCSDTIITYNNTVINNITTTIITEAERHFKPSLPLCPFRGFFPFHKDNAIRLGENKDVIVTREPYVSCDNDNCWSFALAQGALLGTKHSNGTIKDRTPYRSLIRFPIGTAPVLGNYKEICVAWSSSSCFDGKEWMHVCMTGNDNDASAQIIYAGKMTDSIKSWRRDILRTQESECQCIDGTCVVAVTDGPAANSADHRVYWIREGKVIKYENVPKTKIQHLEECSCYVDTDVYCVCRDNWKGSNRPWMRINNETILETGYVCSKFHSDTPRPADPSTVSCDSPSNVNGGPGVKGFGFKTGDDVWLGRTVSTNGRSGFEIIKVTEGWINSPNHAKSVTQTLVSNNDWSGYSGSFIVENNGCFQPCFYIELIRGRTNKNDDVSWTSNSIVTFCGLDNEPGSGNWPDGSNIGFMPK

Usually CC50 stands for the concentration that lowers cell viability or growth by half. Broadly, the EC50 is the midpoint of the concentration-response curve. Molecule `COc1cc(-c2oc3cc(O)cc(O)c3c(=O)c2O)ccc1O` [isorhamnetin] had a CC50 at 48 h in the data set “Toxicity in MDCK cells” above 280 µM. The SI with A/Almaty/8/98(H3N2) [1] is reported as above 10.0; in [4] it was above 12.1; in data set [7], above 5.0; in data set [8], above 8.1; in [9] it was above 7.9; in data set [18] (in vivo), above 12.0. In the data set on A/Almaty/8/98(H3N2) [20] (in vivo), this molecule showed an SI above 15. The concentration for a half-maximal effect (EC50) with A/Almaty/8/98(H3N2) [1] was 28 ± 0.34 µM; in [2] it was 56 ± 0.45 µM; in [7], 56 ± 0.45 µM; in [9], 35.4 ± 0.18 µM; in data set [15] it was 28 to 56 µM; in data set [18], 35.4 ± 0.18 µM. The same molecule registered an EC50 in the data set with A/Almaty/8/98(H3N2) [20] of 28 ± 0.34 µM. Moreover, the “Virus Titer Reduction Factor (VTRF)” value was 1.5 ± 0.02 in [3], 1.5 ± 0.02 in the data set with A/Almaty/8/98(H3N2) [5], 1.5 ± 0.02 in data set [10] and 1.9 ± 0.02 in data set [16]. The IC50 in [6] worked out at 156 ± 2 µM; in data set [11] it was 39.3 ± 0.7 µM; in [12], 370 ± 7.5 µM; in data set [14] it was 48.2 ± 1.7 µM; in data set [17], 68.2 ± 1.2 µM; with A/Almaty/8/98(H3N2) [19], 50.5 ± 0.45 µM. This molecule also yielded a CC50 at 5 days in data set [13] above 420 µM.
`CCOC(=O)C1=C[C@@H](OC(CC)CC)[C@H](NC(C)=O)[C@@H](N)C1` [oseltamivir] showed a CC50 at 48 h in the data set “Toxicity in MDCK cells” above 100 µM. The EC50 with A/Almaty/8/98(H3N2) [1] was 1.33 ± 0.028 µM; in [7], 9.091 ± 0.04 µM; in data set [9] it was 1.65 ± 0.027 µM; in data set [15], 1.3 to 9.1 µM; in data set [18] it was 1.65 ± 0.027 µM; in the data set with A/Almaty/8/98(H3N2) [20], 1.33 ± 0.028 µM. Further, the “Virus Titer Reduction Factor (VTRF)” value in [3] amounted to 1.0 ± 0.02; with A/Almaty/8/98(H3N2) [5], 1.0 ± 0.02; in data set [10], 1.0 ± 0.02; in [16], 1.0 ± 0.01. Moreover, the IC50 in [6] came to 155 ± 5.1 µM; in [11], 155 ± 2 µM; in data set [12] it was 20.3 ± 0.5 µM; in data set [14], 135 ± 6.6 µM; in data set [17], 6.1 ± 0.2 µM; in the data set on A/Almaty/8/98(H3N2) [19] it was 145 ± 6.6 µM. The IC50 in data set [21] lay in the range of 4 to 20.3 µM. In addition, in data set [13], the CC50 at 5 days is above 150 µM.
